In assay [1] the test system is endogenous foam cell formation. In words: Macrophage cholesterol content and plasma TMAO in mice on chow supplemented with choline, TMAO or DMB (Example 1). The format is in vivo, C57BL/6J.Apoe−/− mice. Particulars: normal chow supplemented with choline, TMAO or DMB vs normal chow control. The protocol:
Male C57BL/6J.Apoe−/− mice (15 week old) were placed on normal chow (control) alone or supplemented in the presence of either choline (1.0%), TMAO (0.12%), or DMB (1.0%). Peritoneal macrophages were recovered from the indicated number of mice at 20 weeks of age and cellular cholesterol content was quantified by stable isotope dilution GC/MS, and normalized to DNA content.
Experiments were conducted during development of embodiments of the present invention to examine the structural specificity of phaophatidylcholine metabolites in promoting a pro-atherogenic macrophage phenotype as monitored by endogenous foam cell formation. C57BL/6J.Apoe−/− mice at time of weaning were placed on either normal chow diet (control) or normal chow supplemented with either choline, TMAO or the choline analog DMB, where the quaternary amine nitrogen of choline is replaced with a carbon (SEE FIG. 2, right). Thus, DMB is structurally identical to choline except there is no C—N bond for potential cleavage and TMA formation by gut flora.

Assay [2] has as its system C57BL/6J.Apoe−/− male mice. In words: Aortic root lesion plaque, oil red O staining (Example 2). In kind it is in vivo. An excerpt: C57BL/6J.Apoe−/− male mice at the time of weaning (4 weeks) were placed on chow diet supplemented with 1.3% choline, 1.3% DMB, both, or neither. Aortic root section was stained with oil red 0/hematoxin. The red oil staining area inside the aorta indicates lesion plaque (SEE FIGS. 3 and 4).

Assay [3] in a line: Plasma lipoprotein profile of mice on supplemented chow (Example 3). The format is in vivo. Particulars: 1.3% DMB added to mouse diet. The protocol:
Experiments were conducted during development of embodiments of the present invention to compare plasma levels of (1) cholesterol, (2) triglyceride, low density lipoprotein-cholesterol, and HDL cholesterol in mice fed chow, or chow supplemented with 1.3% choline, 1.3% DMB, or both (SEE FIG. 5).

Assay [4] concerns Peritoneal macrophages. In words: Cholesterol accumulation and foam cell formation in peritoneal macrophages, oil red O staining (Example 4). The format is in vivo, C57BL/6J.Apoe−/− male mice. Particulars: 1.3% DMB added to 1.3% choline diet. The procedure: Experiments were conducted during development of embodiments of the present invention to examine the effect of addition of DMB on cholesterol accumulation and foam cell formation. C57BL/6J.Apoe−/− male mice at the time of weaning (4 weeks) were placed on chow diet supplemented with 1.3% choline, 1.3% DMB, both, or neither. Peritoneal macrophages were collected, fixed in 4% paraformaldehyde and stained with oil red 0/hematoxin.

Assay [5] relates to peritoneal mouse macrophages. In words: Total cholesterol in peritoneal macrophages by stable isotope dilution LC/MS/MS (Example 5). Particulars: chow with 1.3% choline, 1.3% DMB, both or neither. The format is in vivo, C57BL/6J.Apoe−/− male mice. The protocol: Experiments were conducted during development of embodiments of the present invention to determine the effect of DMB on total cholesterol level in peritoneal mouse macrophages (SEE FIG. 7). C57BL/6J.Apoe−/− male mice at the time of weaning (4 weeks) were placed on chow diet supplemented with 1.3% choline, 1.3% DMB, both, or neither. The total cholesterol of cells was quantified by stable isotope dilution LC/MS/MS. Cells number was quantified by protein content in cell lystates.

For assay [6], the system named is intestinal microflora. In words: Intestinal microflora-catalyzed generation of trimethylamine from D9-choline in cecum homogenate (Example 6). The format is biochemical, Mouse. Particulars: D9-choline substrate. The procedure:
Experiments were conducted during development of embodiments of the present invention to examine the effect of DMB on intestinal microflora-catalyzed generation of trimethylamine from choline. Mouse celum was homogenized as a source of intestinal microflora. D9-choline was used as a substrate and the generation of […] was quantificed by stable isotope dilution LC/MS/MS.

Assay [7] has as its system gut flora. In words: Plasma TMA and TMAO in mice after 3 weeks on diets +/- ABS or DMB (Example 7, part 1). The format is in vivo. Particulars: female mice, 3 weeks on diet, chow or 1.0% wt/wt choline. The protocol:
Six week old female mice were placed on the indicated diets +/− shown in FIG. 9, including Chow, CHOW+antibiotics (ABS; which was 0.5 g/L vancomycin, 1 g/L neomycin sulfate, 1 g/L metronidazole, and 1 g/L ampicillin), TMAO, CH (chow supplemented with 1.0% wt/wt choline), CH and ABS, and CH+DMB. Mice were placed on these diets at 6 weeks of age and maintained on the diets for 3 weeks. Plasma was then recovered and both TMA and TMAO were determined by stable isotope dilution LC/MS/MS.

The test system of assay [8] is platelets. In words: Ex vivo platelet aggregation triggered by ADP, platelets from mice on diets (Example 7, parts 2-4). In kind it is in vivo. Particulars: platelets from mice on high choline or TMAO diet +/- antibiotics or DMB. The protocol:
(§1) In this example, mice were placed on either normal chow diet at time of weaning, or a high choline diet. After several weeks, whole blood was removed, and platelets isolated. The ability of a submaximal agonist of platelets, ADP, to trigger platelet aggregation was then determined. In parallel, plasma levels of TMAO were determined by established stable isotope dilution LC/MS/MS analyses. […] This is a clear signal of a pro-thrombotic phenotype in the mice on a high choline diet. In a similar study, the mice on the high choline were also placed on a cocktail of broad spectrum antibiotics (described above and in Wang et al., Nature 2011, April, 472(7341):57-63, incorporated by reference it its entirety for all purposes) to suppress intestinal microflora, and reduce plasma TMAO levels. […] Such drugs (e.g., DMB or antibiotics) are attractive since they should not induce excess bleeding (e.g., like commercial anti-thrombotic drugs like clopidogrel or Warfarin). That is, TMAO only accentuates platelet function, and reducing TMAO levels (like with DMB, antibiotic, or some other drug or approach, be it functional food, probiotic, or prebiotic) would decrease in vivo thrombosis, but not reduce below “normal” function, and thus not increase bleeding risk. […]

The subject of assay [9] is wild-type mice. In words: Carotid artery in vivo thrombosis rates by vital microscopy, wild-type mice (Example 7, parts 6-7). Particulars: for in vivo thrombosis rates: diets +/- ABS or DMB for 3 weeks. The protocol: This example repeats the study immediately above, excepts uses wild-type mice. The results are shown FIG. 14.
Carotid artery in vivo thrombosis rates were determined using vital microscopy on the indicated groups of mice shown in FIG. 15. Mice were on the indicated diets +/− ABS or DMB for 3 weeks.

Assay [10] has as its system gut flora. In words: Plasma TMAO by stable isotope dilution LC/MS/MS in the mice of the platelet aggregation study. In kind it is in vivo. Particulars: high choline diet +/- antibiotics or DMB. The protocol:
as §1

The test system of assay [11] is Atherosclerosis Prone ApoE−/− Mice. In words: Carotid artery in vivo thrombosis rates by vital microscopy, ApoE−/− mice (Example 7, part 5). Particulars: diets +/- ABS for 3 weeks. The procedure: In this example, carotid artery in vivo thrombosis rates were determined using vital microscopy on the indicated groups of mice in FIG. 13. Mice were on the indicated diets +/− ABS for 3 weeks.
These studies extend to in vivo studies what was seen before with ex vivo platelet aggregation studies from mice on the various indicated diets. […] A shorter time indicates faster platelet aggregation (enhanced in vivo thrombosis).

The test system of assay [12] is proteus mirabilis. In words: TMA production from choline by proteus mirabilis (FIG. 24). The format is cell-based.

Entries after “also recorded” stand apart in the source; their conditions may differ.

Turning to `CC(C)(C)CCO` [DMB, 3,3-dimethyl-1-butanol], in assay [1], the macrophage cholesterol content entry was “no increased accumulation of cholesterol in endogenous macrophages” and the “plasma levels of TMAO” value is on record as “no TMAO increase”. Besides, in assay [2] (1.3% DMB added to normal chow diet, apoE−/− mice), the “reduction of aortic plaque formation” value is around 90%. Also, the “increases in atherosclerotic plaque induced by the high choline diet” value in assay [2] (addition to chow with 1.3% choline) is “blocks the diet-induced enhanced artherosclerosis”. Besides, in assay [3], the “plasma HDL cholesterol” value is listed as “increase in high density lipoproteins”, the “plasma low density lipoprotein-cholesterol” value is recorded as “significant reductions”, the plasma total cholesterol result is given as “significant reductions” and the plasma triglyceride result is recorded as “significant reductions”. The “cholesterol accumulation and foam cell formation” value in [4] is “reversed the high choline diet induced cholesterol accumulation and foam cell formation”. For the same molecule, the “macrophage cholesterol content (total cholesterol of cells)” value in assay [5] was “blocked”. Moreover, the “gut flora-mediated catabolism of choline to TMA” value in [6] was “markedly inhibited”. In addition, in assay [7], the “plasma TMA” value was “inhibits TMA and TMAO formation”; the “plasma TMAO” value was “inhibits TMA and TMAO formation”. Also, the “platelet aggregation (response to ADP)” value in assay [8] was “markedly reduces platelet hyperresponsiveness; also recorded: blocks platelet hyper-responsiveness (aggregation)”. Also, the “in vivo thrombosis rates” value in assay [9] is given as “block the reduction in in vivo thrombosis rates seen on a high choline diet”. The TMAO levels entry in assay [9] (high choline diet +/- ABS or DMB for 3 weeks) is reported as “block TMAO levels”. For the same molecule, the “plasma TMAO levels” value in [10] was “inhibits TMAO formation”.

For the molecule `C[N+](C)(C)[O-]` [TMAO, trimethylamine N-oxide, reference compound], in assay [1], the macrophage cholesterol content result is “increased macrophage cholesterol content” and the “plasma levels of TMAO” value is “elevated plasma levels of TMAO”. Besides, the “platelet aggregation (response to ADP)” value in assay [8] is on record as “promotes enhanced platelet aggregation”. For the same molecule, the “in vivo thrombosis rates (time to cessation of blood flow in the carotid artery)” value in [11] is given as “promotes accelerated in vivo thrombosis rates”. Moreover, in [9], the “in vivo thrombosis rates” value is listed as “Enhances In Vivo Thrombosis Rates”.

Take `C[Si](C)(C)CCO` [trimethylsilylethanol, trimethylsilyl ethanol]: in assay [12], the “TMA production from choline” value is “serves as an inhibitor of TMA production from choline”.

Source of the values: patent US10064830B2, “Treatment and prevention of cardiovascular disease and thrombosis” (The Cleveland Clinic Foundation, priority 2012, dated 2018).
